According to patent publication US11452758B2, “Antimicrobial peptide derived from LL37 peptide and uses thereof” (INDUSTRY-ACADEMIC COOPERATION FOUNDATION, CHOSUN UNIVERSITY, priority 2018, dated 2022):
Values after ≈ are worked out from the molar mass of the structure shown. Read-outs that look alike come from different tables or passages of the source. Where a SMILES comes first, the peptide text is derived from it.

Columns and labels:
[1] = system: A. baumannii #11; format: cell-based, Acinetobacter baumannii
From the text: (§1) To compare the antimicrobial activity among the peptides produced by the method of Example 1, the inventors of the present invention measured the minimal growth inhibitory concentration (MIC), which is minimum concentration of the peptide not allowing any […] of bacterial cells.
(§2) Specifically, the bacterial strains described in the following Table 2 were purchased and cultured to a mid-log phase in MHB (Mueller Hinton Broth) medium. Then, after dilution to bacterial cell concentration of 2×10^5 cells/50 μl, the cells were inoculated to a microtiter plate (NUNC, USA). Thereafter, LL37-1, LL37-2, LL37-3 or LL37-4 peptide which has been synthesized in Example 1 above was subjected to serial dilution, ½ times for each, in a 96-well plate. After adding the peptides in an amount of 50 μl to the cell plate, the cells were cultured for 18 hours at 37° C. By using a microtiter plate reader (Merck Elisa reader, Germany), the absorbance was measured at a wavelength of 600 nm to determine the MIC value of each bacterial strain. As a control group, LL37 as a mother peptide was used and subjected to the same process as above to determine the MIC value of each strain.

[2] = system: A. baumannii #8; format: cell-based, Acinetobacter baumannii
From the text: as §1, §2

[3] = system: A. baumannii KCTC 2508; format: cell-based, Acinetobacter baumannii
From the text: as §1, §2

[4] = system: A. baumannii #12; format: cell-based, Acinetobacter baumannii
From the text: as §1, §2

[5] = system: A. baumannii #2; format: cell-based, Acinetobacter baumannii
From the text: as §1, §2

[6] = system: A. baumannii #13; format: cell-based, Acinetobacter baumannii
From the text: as §1, §2

[7] = system: A. baumannii #9; format: cell-based, Acinetobacter baumannii
From the text: as §1, §2

[8] = system: A. baumannii #5; format: cell-based, Acinetobacter baumannii
From the text: as §1, §2

[9] = system: A. baumannii #19; format: cell-based, Acinetobacter baumannii
From the text: as §1, §2

[10] = system: A. baumannii #10; format: cell-based, Acinetobacter baumannii
From the text: as §1, §2

[11] = system: A. baumannii #4; format: cell-based, Acinetobacter baumannii
From the text: as §1, §2

[12] = system: A. baumannii #3; format: cell-based, Acinetobacter baumannii
From the text: as §1, §2

[13] = Cytotoxicity in normal cell line (MTT); format: cell-based, human; conditions: human
Protocol: To determine the cytotoxicity of the peptides produced by the method of Example 1 in normal cell line, cytotoxicity was measured by using normal human keratinocyte cell line (HaCaT) and normal human fibroblast cell line (Hs27).
Specifically, normal human keratinocyte (HaCaT) cells and normal human fibroblast (Hs27) cells, which have been cultured in DMEM medium containing 10% FBS (fetal bovine serum), were aliquoted in a microtiter plate to have 1×10^4 cells per well. After culturing them for 24 hours, the cells were subjected to a treatment with LL37, LL37-1, LL37-2, LL37-3 or LL37-4 peptide, each at concentration of 0.5, 1, 2, 4, 8, 16 or 32 μM/well, followed by reaction for 24 hours in a 5% CO2 incubator. After culture, a reaction solution containing 5 mg/ml MTT (Thiazolyl Blue Tetrazolium Bromide) dissolved in phosphate buffered saline (PBS) was added in an amount of 10 μl to each well and the reaction was allowed to occur for 1 hour. After that, the supernatant was discarded, and, by dissolving MTT crystals that are formed by adding 200 μl DMSO (dimethyl sulfoxide), the absorbance at 570 nm was measured to determine the cell survival ability.

[14] = system: S. typhimurium KCTC 1925; format: cell-based, Salmonella typhimurium
From the text: as §1, §2

[15] = system: Acinetobacter baumannii KCTC 2508; assay: Low vacuum scanning electron microscopy (membrane-disrupting property); format: cell-based; conditions: peptide at MIC concentration, 30 minutes at 37° C.
Protocol: To specifically determine the degree of antimicrobial activity of the synthesized peptides of the present invention, the influence of mother peptide LL37 and homologous peptides LL37-1, LL37-2, LL37-3 and LL37-4 on bacteria membrane, i.e., membrane-disrupting property, was determined by low vacuum scanning electron microscopy.
Specifically, Acinetobacter baumannii KCTC 2508 cells were cultured to a mid-log phase in MHB medium, and then diluted to a cell concentration of 2×10^7 cells/ml in physiological saline containing 10% MHB medium. […] After that, by using 2.5% glutaraldehyde, the bacterial cells were fixed for 30 minutes at room temperature and then for 12 hours at 4° C. After carrying out washing with buffer, the cells were fixed again with […] and dehydrated in stepwise manner by using ethanol. After the dehydration, platinum coating was carried out and the cells were observed by low vacuum scanning electron microscopy.

[16] = system: Human macrophage cells (U937) infected with Acinetobacter baumannii KCTC 2508; assay: Expression of inflammatory cytokines, Western blot and real time RT-PCR; format: cell-based; conditions: U937 infected with A. baumannii KCTC 2508, peptide added 1 hour after infection, sample after 9 hours
Protocol: To see whether or not a change in expression of inflammatory cytokines in macrophage is caused by the peptides that are prepared by the method of above Example 1, determination was made by Western blot and real time reverse transcription polymerase chain reaction.
Specifically, Acinetobacter baumannii KCTC 2508 cells were cultured to a mid-log phase in MHB medium, and then diluted to a cell concentration of 1×10^7 cells/ml in physiological saline. Human macrophage cells (U937) were then infected with the resulting cells in time-dependent manner to yield the first sample, and another macrophage cells were infected with Acinetobacter baumannii KCTC 2508 cells, which have been diluted to a concentration of 1×10^7 cells, and added with, 1 hour after the infection, mother peptide LL37 or the homologous peptide to collect the second sample after 9 hours. Both collected samples were treated with cell lysis buffer to obtain the supernatant (sup) and pellet (lysate). Thereafter, by Western blot and real time reverse transcription polymerase chain reaction, a change in the expression level of inflammatory cytokines was examined.

CC[C@H](C)[C@H](NC(=O)[C@H](CCCNC(=N)N)NC(=O)[C@H](CCC(N)=O)NC(=O)[C@@H](NC(=O)[C@@H](NC(=O)[C@H](CCCNC(=N)N)NC(=O)[C@H](CCCCN)NC(=O)[C@H](Cc1ccccc1)NC(=O)[C@H](CCCCN)NC(=O)[C@@H](N)CCCCN)[C@@H](C)CC)C(C)C)C(=O)N[C@@H](CCCCN)C(=O)N[C@@H](CCCCN)C(=O)N[C@@H](Cc1ccccc1)C(=O)N[C@@H](CC(C)C)C(=O)N[C@@H](CCCNC(=N)N)C(=O)N[C@@H](CC(N)=O)C(N)=O [LL37-4, KKFKRIVQRIKKFLRN-NH2] (H-KKFKRIVQRIKKFLRN-NH2; N-terminus assumed)
Minimal inhibitory concentration ([1]; #11): 2 µM (≈ 4.2 µg/mL)
Minimal inhibitory concentration ([2]; #8): 2 µM (≈ 4.2 µg/mL)
Minimal inhibitory concentration of antimicrobial peptide ([3]; KCTC 2508): 4 µM
Minimal inhibitory concentration ([3]; KCTC 2508, 18 h): 4 µM (≈ 8.41 µg/mL)
Minimal inhibitory concentration ([4]; #12): 2 µM (≈ 4.2 µg/mL)
Minimal inhibitory concentration ([5]; #2): 2 µM (≈ 4.2 µg/mL)
Minimal inhibitory concentration ([6]; #13): 2 µM (≈ 4.2 µg/mL)
Minimal inhibitory concentration ([7]; #9): 2 µM (≈ 4.2 µg/mL)
Minimal inhibitory concentration ([8]; #5): 2 µM (≈ 4.2 µg/mL)
Minimal inhibitory concentration ([9]; #19): 4 µM (≈ 8.41 µg/mL)
Minimal inhibitory concentration ([10]; #10): 2 µM (≈ 4.2 µg/mL)
Minimal inhibitory concentration ([11]; #4): 2 µM (≈ 4.2 µg/mL)
Minimal inhibitory concentration ([12]; #3): 2 µM (≈ 4.2 µg/mL)
viability at 24 h, 0.5 µM ([13]; HaCaT keratinocyte cells): 100%
viability at 24 h, 1 µM ([13]; HaCaT keratinocyte cells): 103%
viability at 24 h, 2 µM ([13]; HaCaT keratinocyte cells): 97%
viability at 24 h, 4 µM ([13]; HaCaT keratinocyte cells): 96%
viability at 24 h, 8 µM ([13]; HaCaT keratinocyte cells): 92%
viability at 24 h, 16 µM ([13]; HaCaT keratinocyte cells): 94%
viability at 24 h, 32 µM ([13]; HaCaT keratinocyte cells): 101%
viability at 24 h, 0.5 µM ([13]; Hs27 fibroblast cells): 94%
viability at 24 h, 1 µM ([13]; Hs27 fibroblast cells): 94%
viability at 24 h, 2 µM ([13]; Hs27 fibroblast cells): 97%
viability at 24 h, 4 µM ([13]; Hs27 fibroblast cells): 90%
viability at 24 h, 8 µM ([13]; Hs27 fibroblast cells): 93%
viability at 24 h, 16 µM ([13]; Hs27 fibroblast cells): 96%
viability at 24 h, 32 µM ([13]; Hs27 fibroblast cells): 93%
Minimal inhibitory concentration ([14]; KCTC 1925, 18 h): 4 µM (≈ 8.41 µg/mL)
membrane disruption compared to LL37-1 and LL37-3 (scanning electron microscopy) [15]: disrupted more
membrane-disrupting property (scanning electron microscopy) [15]: disruption of bacteria membrane
expression level of HMGB-1 and late cytokine (IL-1b and TNF-α) [16]: increase in expression level of HMGB-1 and late cytokine is lower

CC[C@H](C)[C@H](NC(=O)[C@H](CCCNC(=N)N)NC(=O)[C@H](CCC(N)=O)NC(=O)[C@@H](NC(=O)[C@@H](NC(=O)[C@H](CCCNC(=N)N)NC(=O)[C@H](CCCCN)NC(=O)[C@H](Cc1ccccc1)NC(=O)[C@H](CCCCN)NC(=O)[C@@H](N)CCCCN)[C@@H](C)CC)C(C)C)C(=O)N[C@@H](CCCCN)C(=O)N[C@@H](CC(=O)O)C(=O)N[C@@H](Cc1ccccc1)C(=O)N[C@@H](CC(C)C)C(=O)N[C@@H](CCCNC(=N)N)C(=O)N[C@@H](CC(N)=O)C(N)=O [LL37-2, KKFKRIVQRIKDFLRN-NH2] (H-KKFKRIVQRIKDFLRN-NH2)
Minimal inhibitory concentration ([1]; A. baumannii #11, tolerance to antibiotics): 2 µM (≈ 4.18 µg/mL)
Minimal inhibitory concentration ([2]; A. baumannii #8, tolerance to antibiotics): 2 µM (≈ 4.18 µg/mL)
Minimal inhibitory concentration of antimicrobial peptide ([3]; A. baumannii KCTC 2508, Control (MIC values of Table 3, no added ions)): 4 µM
Minimal inhibitory concentration ([3]; A. baumannii KCTC 2508, MHB, 18 hours at 37° C.): 4 µM (≈ 8.35 µg/mL)
Minimal inhibitory concentration ([4]; A. baumannii #12, tolerance to antibiotics): 2 µM (≈ 4.18 µg/mL)
Minimal inhibitory concentration ([5]; A. baumannii #2, tolerance to antibiotics): 2 µM (≈ 4.18 µg/mL)
Minimal inhibitory concentration ([6]; A. baumannii #13, tolerance to antibiotics): 2 µM (≈ 4.18 µg/mL)
Minimal inhibitory concentration ([7]; A. baumannii #9, tolerance to antibiotics): 2 µM (≈ 4.18 µg/mL)
Minimal inhibitory concentration ([8]; A. baumannii #5, tolerance to antibiotics): 2 µM (≈ 4.18 µg/mL)
Minimal inhibitory concentration ([9]; A. baumannii #19, tolerance to antibiotics): 2 µM (≈ 4.18 µg/mL)
Minimal inhibitory concentration ([10]; A. baumannii #10, tolerance to antibiotics): 2 µM (≈ 4.18 µg/mL)
Minimal inhibitory concentration ([11]; A. baumannii #4, tolerance to antibiotics): 2 µM (≈ 4.18 µg/mL)
Minimal inhibitory concentration ([12]; A. baumannii #3, tolerance to antibiotics): 2 µM (≈ 4.18 µg/mL)
viability at 24 h, 0.5 µM ([13]; HaCaT keratinocyte cells, HaCaT, peptide 0.5 μM, 24 hours, MTT, read-out: Cell survival ability): 100%
viability at 24 h, 1 µM ([13]; HaCaT keratinocyte cells, HaCaT, peptide 1 μM, 24 hours, MTT, read-out: Cell survival ability): 106%
viability at 24 h, 2 µM ([13]; HaCaT keratinocyte cells, HaCaT, peptide 2 μM, 24 hours, MTT, read-out: Cell survival ability): 104%
viability at 24 h, 4 µM ([13]; HaCaT keratinocyte cells, HaCaT, peptide 4 μM, 24 hours, MTT, read-out: Cell survival ability): 102%
viability at 24 h, 8 µM ([13]; HaCaT keratinocyte cells, HaCaT, peptide 8 μM, 24 hours, MTT, read-out: Cell survival ability): 101%
viability at 24 h, 16 µM ([13]; HaCaT keratinocyte cells, HaCaT, peptide 16 μM, 24 hours, MTT, read-out: Cell survival ability): 107%
viability at 24 h, 32 µM ([13]; HaCaT keratinocyte cells, HaCaT, peptide 32 μM, 24 hours, MTT, read-out: Cell survival ability): 107%
viability at 24 h, 0.5 µM ([13]; Hs27 fibroblast cells, Hs27, peptide 0.5 μM, 24 hours, MTT, read-out: Cell survival ability): 92%
viability at 24 h, 1 µM ([13]; Hs27 fibroblast cells, Hs27, peptide 1 μM, 24 hours, MTT, read-out: Cell survival ability): 92%
viability at 24 h, 2 µM ([13]; Hs27 fibroblast cells, Hs27, peptide 2 μM, 24 hours, MTT, read-out: Cell survival ability): 94%
viability at 24 h, 4 µM ([13]; Hs27 fibroblast cells, Hs27, peptide 4 μM, 24 hours, MTT, read-out: Cell survival ability): 91%
viability at 24 h, 8 µM ([13]; Hs27 fibroblast cells, Hs27, peptide 8 μM, 24 hours, MTT, read-out: Cell survival ability): 89%
viability at 24 h, 16 µM ([13]; Hs27 fibroblast cells, Hs27, peptide 16 μM, 24 hours, MTT, read-out: Cell survival ability): 93%
viability at 24 h, 32 µM ([13]; Hs27 fibroblast cells, Hs27, peptide 32 μM, 24 hours, MTT, read-out: Cell survival ability): 97%
Minimal inhibitory concentration ([14]; S. typhimurium KCTC 1925, MHB, 18 hours at 37° C.): 4 µM (≈ 8.35 µg/mL)
